In paper PMC12010937, “Evaluation of FXR Activity in Pollutants Identified in Sewage Sludge and Subsequent in Vitro and in Vivo Characterization of Metabolic Effects of Triphenyl Phosphate” (Environmental Health Perspectives, 2025):
pIC50: −log10 of the molar value. Where “and” joins values, the source holds several entries; their conditions need not be identical. Equal entries are not always repeated. Where two headings read alike, the source gives them in different places. One block for each compound: values may come before it.

Experiments:
[1] = target: T1, human FXR-LBD (GST-FXR-LBD) (Homo sapiens, UniProt Q96RI1); assay: HTRF coactivator recruitment assay, antagonist mode (in the presence of 50 μM CDCA); type: biochemical; conditions: for Relative activity, antagonist mode: 50 μM compound in the presence of 50 μM CDCA, standardized against positive control DY268 (50 μM = 100%); for pIC50: read-out: IC50, inhibition of CDCA-induced coactivator recruitment to FXR
T1 construct: the human FXR-LBD (residues 234–472) was expressed as a GST fusion protein GST-FXR-LBD; made in house; host or cells: E. coli BL21(DE3)
T1 sequence (Q96RI1 234-472 isoform Q96RI1-2): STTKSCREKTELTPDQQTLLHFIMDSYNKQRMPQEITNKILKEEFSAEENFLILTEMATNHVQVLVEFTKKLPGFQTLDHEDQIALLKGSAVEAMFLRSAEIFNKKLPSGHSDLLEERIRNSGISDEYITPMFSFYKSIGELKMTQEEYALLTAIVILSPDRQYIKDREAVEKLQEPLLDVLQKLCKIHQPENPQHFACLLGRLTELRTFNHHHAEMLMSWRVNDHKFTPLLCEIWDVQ

[2] = target: T1, human FXR-LBD (GST-FXR-LBD); assay: HTRF coactivator recruitment assay, agonist mode; type: biochemical
[3] = target: T2, FXR (pCDNA3.1-hFXR, FXRE-luc) (Homo sapiens, UniProt Q96RI1); assay: cell-based; type: cell-based
T2 construct: host or cells: HEK 293T
T2 sequence (Q96RI1 1-486): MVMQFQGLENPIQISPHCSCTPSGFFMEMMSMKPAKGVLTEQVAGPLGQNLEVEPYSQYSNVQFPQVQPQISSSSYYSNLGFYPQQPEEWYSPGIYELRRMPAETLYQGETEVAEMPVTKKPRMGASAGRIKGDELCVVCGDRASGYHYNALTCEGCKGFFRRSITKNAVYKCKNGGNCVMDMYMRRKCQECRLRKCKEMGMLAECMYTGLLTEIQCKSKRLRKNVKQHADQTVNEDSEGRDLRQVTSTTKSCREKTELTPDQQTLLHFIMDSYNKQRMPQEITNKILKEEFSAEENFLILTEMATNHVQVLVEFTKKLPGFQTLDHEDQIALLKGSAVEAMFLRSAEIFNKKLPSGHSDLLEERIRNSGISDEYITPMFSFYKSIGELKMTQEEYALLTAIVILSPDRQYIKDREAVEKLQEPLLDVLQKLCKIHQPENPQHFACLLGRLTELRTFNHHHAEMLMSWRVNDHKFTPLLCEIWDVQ

[4] = 0.98 μM compound + 50 μM CDCA, replicates, read-out: Relative antagonist activity (%)
[5] = 1.95 μM compound + 50 μM CDCA, replicates, read-out: Relative antagonist activity (%)
[6] = 3.90 μM compound + 50 μM CDCA, replicates, read-out: Relative antagonist activity (%)
[7] = 7.80 μM compound + 50 μM CDCA, replicates, read-out: Relative antagonist activity (%)
[8] = 31.25 μM compound + 50 μM CDCA, replicates, read-out: Relative antagonist activity (%)
[9] = 62.50 μM compound + 50 μM CDCA, replicates, read-out: Relative antagonist activity (%)
[10] = […] compound + 50 μM CDCA, replicates, read-out: Relative antagonist activity (%)
[11] = 50 μM compound, standardized against positive control CDCA (50 μM = 100%)
[12] = 10 μM and 25 μM, in the presence of 50 μM CDCA, HEK 293T
[13] = 10 μM compound in the presence of 50 μM CDCA, DMSO 0%, 50 μM CDCA 100%, HEK 293T, replicates
[14] = 25 μM compound in the presence of 50 μM CDCA, DMSO 0%, 50 μM CDCA 100%, HEK 293T, replicates
[15] = read-out: Relative antagonist activity (%)

Relative antagonist activity (%) ([1]; 0.98 μM compound + 50 μM CDCA, replicates): 83.56% and 97.08%
activity at 0.98 µM [1, 4]: 100%
Relative antagonist activity (%) ([1]; 1.95 μM compound + 50 μM CDCA, replicates): 96.79% and 93.64%
activity at 1.95 µM [1, 5]: 101%
Relative antagonist activity (%) ([1]; 3.90 μM compound + 50 μM CDCA, replicates): 97.17% and 94.87%
activity at 3.9 µM [1, 6]: 94.6%
Relative antagonist activity (%) ([1]; 7.80 μM compound + 50 μM CDCA, replicates): 92.66% and 89.45%
activity at 7.8 µM [1, 7]: 91%
Relative antagonist activity (%) ([1]; 31.25 μM compound + 50 μM CDCA, replicates): 63.55% and 62.84%
activity at 31.25 µM [1, 8]: 61.1%
Relative activity, antagonist mode [1]: 80.64%
Relative antagonist activity (%) ([1]; 62.50 μM compound + 50 μM CDCA, replicates): 18.58% and 19.89%
activity at 62.5 µM [1, 9]: 20.8%
Relative antagonist activity (%) ([1]; 125.00 μM compound + 50 μM CDCA, replicates): -1.08% and -0.91% and -0.84%
Relative antagonist activity (%) ([1]; 250.00 μM compound + 50 μM CDCA, standardized to DMSO and 50 μM CDCA, replicates): -2.04% and -2.11% and -2.16%
activity at […] [1, 10]: 82%
pIC50 [1]: 4.39
Relative activity, agonist mode [2, 11]: 1.60%
Luciferase activity compared with DMSO control (in words) [3, 12]: significantly less luciferase activity
Relative luciferase activity (%) [3, 13]: 29.3% and 36.3%
Relative luciferase activity (%) [3, 14]: 36.4% and 33.0% and 15.9%
activity at 10 µM ([3]; HEK-293T, 10 μM compound in the presence of 50 μM CDCA, DMSO 0%, 50 μM CDCA 100%, HEK 293T, replicates, read-out: Relative luciferase activity (%)): 26.9%
SMILES: O=C1Nc2ccc(Cl)cc2[C@@](C#CC2CC2)(C(F)(F)F)O1 [EFV, efavirenz]

activity at 0.01 µM ([3]; HEK-293T, 0.01 μM, dose-response, replicates, read-out: Relative luciferase activity (%)): 96.6%
activity at 0.1 µM ([3]; HEK-293T, 0.1 μM, dose-response, replicates, read-out: Relative luciferase activity (%)): 81%
activity at 0.5 µM ([3]; HEK-293T, 0.5 μM, dose-response, replicates, read-out: Relative luciferase activity (%)): 81%
activity at 1 µM ([3]; HEK-293T, 1 μM, dose-response, replicates, read-out: Relative luciferase activity (%)): 79.6%
activity at 5 µM ([3]; HEK-293T, 5 μM, dose-response, replicates, read-out: Relative luciferase activity (%)): 66.4%
activity at 10 µM ([3]; HEK-293T, 10 μM, dose-response, replicates, read-out: Relative luciferase activity (%)): 53.9%
activity at 25 µM ([3]; HEK-293T, 25 μM, dose-response, replicates, read-out: Relative luciferase activity (%)): 30.5%
activity at 50 µM ([3]; HEK-293T, 50 μM, dose-response, replicates, read-out: Relative luciferase activity (%)): 29.9%
SMILES: C/C=C1\C(=O)C[C@H]2[C@@H]3CCC4=CC(=O)CC[C@]4(C)[C@H]3CC[C@]12C [GS, guggulsterone]

Relative activity, antagonist mode [1]: 100.00%
Relative luciferase activity (%) ([3]; 0.001 μM, dose-response, replicates): 91.11% and 96.02% and 92.43%
Relative luciferase activity (%) ([3]; 0.01 μM, dose-response, replicates): 84.90% and 84.00% and 97.07%
Relative luciferase activity (%) ([3]; 0.05 μM, dose-response, replicates): 69.60% and 78.44% and 89.94%
Relative luciferase activity (%) ([3]; 0.1 μM, dose-response, replicates): 57.18% and 63.12% and 63.84%
Relative luciferase activity (%) ([3]; 0.5 μM, dose-response, replicates): 12.17% and 13.75% and 19.14%
Relative luciferase activity (%) ([3]; 1 μM, dose-response, replicates): -1.72% and -0.13% and 6.23%
Relative luciferase activity (%) ([3]; 5 μM, dose-response, replicates): -18.25% and -19.25% and -13.03%
Relative luciferase activity (%) ([3]; 10 μM, dose-response, replicates): -15.95% and -18.33% and -14.15%
Rate of FXR inhibition at the maximum exposure concentration ([3]; HEK 293T DLR assay, maximum exposure concentration): 116.14%
pIC50 ([3]; HEK 293T cell-based DLR assay, read-out: IC50, inhibition of FXR transcriptional activity): 6.60
SMILES: COc1cccc(Cn2cc(C(=O)Nc3ccc(C)c(S(=O)(=O)N4CCOCC4)c3)c(-c3ccc(C)cc3)n2)c1 [DY268]

Relative activity, antagonist mode [1]: 6.36%
Relative activity, agonist mode [2, 11]: 0.19%
SMILES: CC(C)(C)c1cc(C=O)cc(C(C)(C)C)c1O [BHT-C, 3,5-Ditert-butyl-4-hydroxybenzaldehyde]

The remaining lines, values behind:

SMILES: Clc1ccc(COC(Cn2ccnc2)c2ccc(Cl)cc2Cl)c(Cl)c1 (stereo not shown) [MCZ, miconazole]
activity at 0.98 µM [1, 4]: 101%
activity at 1.95 µM [1, 5]: 96.5%
activity at 3.9 µM [1, 6]: 92.9%
activity at 7.8 µM [1, 7]: 77.8%
activity at 31.25 µM [1, 8]: 31.7%
activity at 62.5 µM [1, 9]: 15.9%
activity at 125 µM ([1]; 125.00 μM compound + 50 μM CDCA, replicates, read-out: Relative antagonist activity (%)): 4.54%
activity at 250 µM ([1]; 250.00 μM compound + 50 μM CDCA, standardized to DMSO and 50 μM CDCA, replicates, read-out: Relative antagonist activity (%)): 2.51%
activity at […] [1, 10]: 61.6%
pIC50 [1]: 4.69
Relative activity, agonist mode [2, 11]: 0.00%
Luciferase activity compared with DMSO control (in words) [3, 12]: significantly less luciferase activity
Relative luciferase activity (%) [3, 13]: 93.6% and 60.3% and 85.8%
Relative luciferase activity (%) [3, 14]: 77.5% and 67.2% and 91.8%

SMILES: Oc1cc(Cl)ccc1Oc1ccc(Cl)cc1Cl [TLS, triclosan]
activity at 1.95 µM [1, 5]: 91.4%
activity at 3.9 µM [1, 6]: 87.5%
activity at 31.25 µM [1, 8]: 34.6%
Relative activity, antagonist mode [1]: 65.82%
activity at 62.5 µM [1, 9]: 4.81%
pIC50 [1]: 4.55
activity at 0.98 µM [1, 15]: 91%
activity at 7.8 µM [1, 15]: 79.8%
activity at […] [1, 15]: 61.3%
Relative activity, agonist mode [2]: 13.3% and 13.26%
Luciferase activity compared with DMSO control (in words) [3]: significantly less luciferase activity
activity at 10 µM ([3]; HEK-293T, read-out: Relative luciferase activity (%)): 24.8%

SMILES: N#Cc1nn(-c2c(Cl)cc(C(F)(F)F)cc2Cl)c(N)c1S(=O)(=O)C(F)(F)F [FIP-S, fipronil sulfone]
Relative activity, antagonist mode [1]: 13.98%
Relative activity, agonist mode [2]: 2.06%

SMILES: CC1COC(=O)c2cc3c(cc21)C(C)(C)C(C)C3(C)C (stereo not shown) [GAX, galaxolidone]
Relative activity, antagonist mode [1]: 14.46%
Relative activity, agonist mode [2]: 0.32%
